What was measured:
TIFA [1] = molecular target: T1, TIFA (Homo sapiens, UniProt Q96CG3); assay: Phosphopeptide analysis of FLAG-TIFA by LC-MS/MS; type: cell-based; conditions: HBP or mock-treated cells stably expressing FLAG-TIFA; FIG. 19a
T1 construct: expressed in transfected cells; endogenous TIFA knocked down with a 3' UTR shRNA
T1 sequence (Q96CG3 1-184): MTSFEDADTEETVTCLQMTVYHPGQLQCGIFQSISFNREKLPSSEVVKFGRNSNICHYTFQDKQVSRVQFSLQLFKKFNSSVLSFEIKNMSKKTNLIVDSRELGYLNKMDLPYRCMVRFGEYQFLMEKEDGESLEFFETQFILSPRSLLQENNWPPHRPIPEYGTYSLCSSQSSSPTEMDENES
Procedure: (§1) FLAG-TIFA was immunoprecipitated from Jurkat cells using FLAG M2 agarose beads (Sigma) as described previously (Chen and Gingras, 2007). Briefly, cells were lysed in 50 mM Hepes-KOH pH 8.0, 100 mM KCl, 2 mM EDTA, 0.1% NP40, 10% glycerol. Soluble cell lysates were pre-cleared for 2 hr with mouse IgG agarose (Sigma) and immunoprecipitated overnight at 4° C. Proteins eluted using 0.5 M NH4OH pH 11 (for mass-spectrometry), or 3× FLAG-peptide (Sigma) (immunoblot analysis). TRAF6 was immunoprecipitated from Jurkat cell lysates using rabbit anti-TRAF6 (sc-72201; Santa cruz) conjugated to protein A/G PLUS-agarose (Santa cruz) and eluted in sample buffer. Whole cell lysates or immunoprecipitation eluates were immunoblotted with the following antibodies: M2 anti-FLAG (Sigma), rabbit anti-FLAG (Sigma), mouse anti-TRAF6 (sc-8409; Santa Cruz), rabbit anti-TRAF2 (sc-876), mouse anti-ubiquitin (sc-8017; Santa cruz), mouse anti-beta actin (Sigma). For phosphopeptide analysis, FLAG-TIFA was excised from the gel, subject to in-gel trypic digestion, followed by treatment with cyanogen bromide (Sigma) in 70% TFA and analyzed by LC/MS/MS. Data were analyzed by Scaffold PTM (Proteome).

[2] = system: HIV gene expression from latently-infected cells; assay: Latent HIV-1 reporter Jurkat T cell line (RG5), DsRed expression; type: cell-based, human; conditions: FIG. 11B
From the text: The full-length HIV-1 molecular clone pLAl containing the following modifications was used as the reporter backbone: Avrll deletion of the 3′ end of Gag and the entire coding sequence of Pol, and a the Ndel/Stul deletion of the 3′ end of Env. The Dsred allele was cloned into the Nef reading frame using BamH1, and Xhol. Lentiviral particles were produced by co-transfection into 293T cells with pMDG.2 and psPAX2. Jurkat cells were transduced with the minimum dose required to see DsRed positive cells following treatment with 10 ng/ml TNFα. 48 hours post transfection, cells were treated HBP, and DsRed positive cells sorted by FACS. Cells were cultured for 14 days followed by DsRed negative cell sorting by FACS. 5 days later, cells were induced with HBP, and DsRed positive cells collected into 96 well plates (0.5 cells/well). Clones were individually tested for low basal DsRed expression, and high DsRed expression following treatment with both HBP and TNFα and termed RG5.
Live cells were re-suspended to 1×10^6 cells/ml in 2% FBS in PBS and analyzed using a FACSCalibur with CellQuest software (Becton Dickinson). Analysis was preformed using FlowJo software (TreeStar). Cell sorting was done using an Aria I cell sorter (Becton Dickinson).

TIFA-TRAF6 interaction = molecular target: T2, TIFA-TRAF6 interaction (Homo sapiens, UniProt Q96CG3); assay: FLAG-TIFA immunoprecipitation and immunoblot for TRAF6; type: cell-based
T2 construct: expressed in transfected cells; endogenous TIFA knocked down with a 3' UTR shRNA; TRAF6 endogenous
T2 sequence (Q96CG3 1-184): T1 sequence (Q96CG3 1-184)
Procedure: as §1

TIFA expression = assay: qRT-PCR of TIFA mRNA levels in Jurkat T cells; type: cell-based, human; conditions: dependent on RelA, FIG. 13
From the text: FIG. 13. Shown is qRT-PCR analysis of TIFA mRNA levels in Jurkat T cells treated with HBP, flagellin, or TNFα (after knockdown of the NF-κB subunit ReIA, or treated with a scrambled shRNA (shCtrl).
RNA was isolated using an RNeasy kit (Qiagen) per manufacturers' protocol. cDNA was synthesized using the iScript cDNA synthesis kit (Bio-Rad) and treated with TURBO DNase (Life Technologies). cDNA was amplified using SsoAdvanced SYBR Green (Bio-Rad) using a C1000 thermal cycler (Bio-Rad). Target genes were amplified using the following primers: […]
Relative expression was calculated using the 2^−ΔΔCT method following normalization of target gene abundance to GAPDH. Quantitative measurements of cytokines were performed using ELISA kits form R&D Systems (KC, IL-23, IFN-β) or BD Biosciences (IL-1β, IL-8, IL-6, IL-12p70, TNF-α). Nuclear extracts were prepared from Jurkat T cells and NF-κB subunit binding was determined using the TransAM® Transcription Factor ELISA (Active Motif). Microarray

TIFA [3] = molecular target: T1, TIFA; assay: Native PAGE analysis of FLAG-TIFA oligomerization; type: cell-based; conditions: clear native-PAGE or blue native PAGE; Jurkat cells; FIG. 20
From the text: For BlueNative PAGE, cells were lysed in 1% NP-40, 0.1% Triton-X100, 0.1% SDS and soluble lysate separated by gradient PAGE (8-16%) using ExpressPlus System™ (GenScript) as described previously (Kofoed and Vance, 2013). For ClearNative PAGE, cells were lysed in 1% NP-40, 0.1% Trition-X100, 0.1% SDS and soluble lysate separated on 12.5% tris-glycine polyacrylamide gels.

O=P(O)(O)OC[C@@H](O)[C@H]1OC(OP(=O)(O)O)[C@@H](O)[C@@H](O)[C@@H]1O (stereo partly drawn) [HBP, D-glycerol-D-manno-heptose-1,7-bisphosphate]
TIFA Thr9 phosphorylation (TIFA [1]): phosphorylated only after treatment with HBP
HIV gene expression from latently-infected cells [2]: potently induce HIV gene expression
Ubiquitin chains in the TIFA-TRAF6 complex (TIFA-TRAF6 interaction; Jurkat cells, TIFA immunoprecipitation, FIG. 17a): Ubiquitin chains could be detected
TIFA-TRAF6 interaction (TIFA-TRAF6 interaction; cells expressing FLAG-TIFA, endogenous TIFA knocked down, FIG. 16a): completely dependent on HBP
Time at which TIFA-TRAF6 interaction was apparent (TIFA-TRAF6 interaction; post treatment, FIG. 16a): 30 min
Upregulation of TIFA expression (TIFA expression): over 5 fold
TIFA oligomerization (TIFA [3]): triggered TIFA oligomerization

From patent US10238738B2, “Methods of modulating immune system responses” (priority 2014, dated 2019)
